Data set [1] relates to nonalcoholic steatohepatitis. Also on record: method as in PMID 32688217. Particulars: obese mice, equal doses in diet; cited from earlier work.
For data set [2] the following is noted: in vivo; cited from earlier work.
The nature of data set [3]: Compartmental model of catechin kinetics from plasma and urine pharmacokinetic data after ingestion of GTE confection. It is filed as in vivo, healthy adults. From the text:
Data for the present study were obtained from our prior investigation of the pharmacokinetics of green tea polyphenols in healthy adults. The study protocol was approved by the Biomedical Institutional Review Board at Ohio State University (#2017H0246) and registered at ClinicalTrials.gov (NCT03413735). In brief, 19 healthy adults (10 males and 9 females; 27 ± 2 y; 22 ± 0 kg/m^2) who were normotensive (systolic blood pressure, 112.1 ± 2.3 mmHg and diastolic blood pressure, 72.5 ± 1.6 mmHg) normoglycemic (fasting glucose, 92.3 ± 1.8 mg/dL) and normolipidemic (total cholesterol, 181.1 ± 7.8 mg/dL and triglyceride 61.7 ± 7.5 mg/dL) completed the study in the Columbus, Ohio area. Participants were non-smokers, non-users of dietary supplements, non-regular tea drinkers (<2 cups/wk), consumed <3 alcoholic drinks/d, non-pregnant or non-lactating, not using any medications or antibiotics, and had no history of gastrointestinal disorders or surgeries.
Complete details of the pharmacokinetic study were reported in [24]. In brief, participants abstained from polyphenol-rich foods for 3 d. In the fasting state (10–12 h) on day 4, participants voided their bladder, and a catheter was inserted into the antecubital vein to collect blood samples at baseline (0 h) and at 0.25, 0.5, 1, 2, 3, 5, 8, 10, and 12 h post-ingestion of a confection formulated with catechin-rich GTE. Urine was collected in timed intervals from 0–4, 4–8, 8–12, and 12–24 h (Figure 2). Participants received standardized meals at 4 h (11:00), 6 h (13:00) and 12 h (19:00) following confection ingestion. Snacks (e.g., pretzels, crackers) were also provided between 13:00–19:00. All foods were devoid of polyphenols and provided to participants in a eucaloric manner based on estimated energy requirements using the Harris–Benedict formula [25]. Controlled meals were designed to provide 48–55% of energy from carbohydrates, 15–20% from proteins, and 20–35% from fats. No additional foods or beverages, except water, were consumed by participants during the 24 h trial period.
GTE confections were developed as an alternative delivery system for catechins because Americans prefer catechin-deplete black tea over catechin-rich green tea. Confections were prepared in-house and formulated with 84.5% water, 2% sucrose, 6% gelatin, 0.5% citric acid, 6% lime-flavored gelatin, and 1% decaffeinated GTE powder. Confections were prepared within 24 h of the participants’ pharmacokinetics trial and stored at 4 °C. Each participant ingested 2 confections (each 25 g and ~2.5″ cubed), which contained 0.5 g GTE (Sunphenon 90 LB, Taiyo International, Inc., Minneapolis, MN, USA) to provide 445 mg total catechins (290 mg EGCG, 87 mg EGC, 39 mg EC, 28 mg ECG). The catechin content of all confections was confirmed by HPLC analysis. Based on brewed green tea (250 mL prepared with 2.2 g of dry tea leaves) containing ~180 mg total catechins, GTE at 0.5 g approximates 2.5 cups of green tea.
Biospecimen handling and preservation of catechins concentrations in plasma and urine were described. In brief, venous plasma was collected in heparinized tubes, while urine was collected in sterilized containers. Samples were preserved by adding a solution of acetic acid, ascorbic acid, and EDTA, snap-frozen in liquid nitrogen and stored at −80 °C until analyzed. Plasma and urinary catechins (EGCG, EGC, ECG, EC) were analyzed by LC-MS following enzymatic hydrolysis and extraction as reported.
Tissue-specific kinetics of each catechin were determined by model-based compartmental analysis using the Windows version of Simulation, Analysis, and Modeling software (WinSAAM version 3.0.8). The observed data were expressed as a fraction of the ingested dose, i.e., the mass of catechins measured in plasma/urine at specified times divided by the mass of the ingested catechin dose. […]

The test system of data set [4] is Caco-2 monolayer. As to conditions: cited from earlier work.
Data set [5] has as its system pancreatic tumor cells. As to conditions: cited from earlier work.
For data set [6] the following is noted: alkaline pH; cited from earlier work.
For data set [7] the following is noted: in vitro; cited from earlier work.
Setting [8] is: 0.5 g GTE confection, n = 19, two-way ANOVA with Tukey's post-hoc.
[9] abbreviates: fractional catabolic rate from plasma, not statistically significant.

Where two headings read alike, the source gives them in different places.

`Oc1cc(O)c2c(c1)OC(c1ccc(O)c(O)c1)C(O)C2` (single isomer, unassigned; (+)) [catechin, (+)-catechin]: in data set [1], the “alleviating pathological evidence of nonalcoholic steatohepatitis” value is listed as “effective”.
As for `Oc1cc(O)c2c(c1)O[C@H](c1ccc(O)c(O)c1)[C@H](O)C2` [EC, epicatechin], the “fraction present in human plasma following oral administration of green tea” value (“fraction present” below) in data set [2] is reported as 1.1%. In addition, in data set [3] (setting [8]), the “fractional catabolic rate (FCR), fraction of compound lost irreversibly from plasma per min, rank order” value (from here on “fractional catabolic rate … per min, rank order”) is “EGC > EGCG = EC > ECG” and the “plasma residence time, rank order” value is “ECG > EC = EGCG > EGC”. For the same compound, in data set [3] (setting [9]), the “mean FCR higher in females compared with males” value was found to be 9%. For the same compound, in data set [3] (n = 19), the “fractional transfer rate from plasma to extravascular tissues, rank order” value is recorded as “EGC > EGCG > EC > ECG”; the “fractional transfer rate from plasma to kidneys, rank order” value is given as “EGC = EC > EGCG = ECG”; the “fractional transfer rate from the liver to plasma, rank order” value (shortened to “fractional transfer rate from the liver”) is on record as “EGC > EC > EGCG = ECG”. For the same compound, the “basal-to-apical transport of catechins, rank order” value (from here on “basal-to-apical transport”) in data set [4] (Caco-2 cell model) was “EC > EGC > ECG ≈ EGCG”.
For `O=C(O[C@@H]1Cc2c(O)cc(O)cc2O[C@@H]1c1ccc(O)c(O)c1)c1cc(O)c(O)c(O)c1` [ECG, epicatechin gallate], in data set [3] (setting [8]), the “fractional catabolic rate … per min, rank order” value is given as “EGC > EGCG = EC > ECG” and the “plasma residence time, rank order” value is “ECG > EC = EGCG > EGC”. The “fractional transfer from the small intestine to the liver” value in data set [3] (ECG compared with EC) is recorded as “slower”. Moreover, the “fractional transfer from kidneys to urine” value in data set [3] (ECG vs. EC) is reported as “slower”. The “fractional transfer rate from the upper gastrointestinal tract to the small intestine” value in data set [3] (compared with other catechins) is on record as “faster”. Also, the “mean FCR higher in females compared with males” value in data set [3] (setting [9]) stood at 5%. Also, in data set [3] (n = 19), the “fractional transfer rate from plasma to extravascular tissues, rank order” value is on record as “EGC > EGCG > EC > ECG”; the “fractional transfer rate from plasma to kidneys, rank order” value is on record as “EGC = EC > EGCG = ECG”; the “fractional transfer rate from the liver” value is “EGC > EC > EGCG = ECG”. Moreover, the “basal-to-apical transport” value in data set [4] (Caco-2 cell model) is on record as “EC > EGC > ECG ≈ EGCG”. Further, in data set [5], the “anti-inflammatory activity compared with EGCG” value is “superior”.
With `Oc1cc(O)c2c(c1)O[C@H](c1cc(O)c(O)c(O)c1)[C@H](O)C2` [EGC, epigallocatechin], the “fraction present” value in data set [2] is on record as 0.58%. Moreover, the “mean FCR higher in females compared with males” value in data set [3] (both, human, in vivo) stood at 13%. Moreover, in data set [3] (in vivo), the “fractional catabolic rate … per min, rank order” value is “EGC > EGCG = EC > ECG”; the “fractional transfer rate from plasma to extravascular tissues, rank order” value is on record as “EGC > EGCG > EC > ECG”; the “fractional transfer rate from plasma to kidneys, rank order” value is on record as “EGC = EC > EGCG = ECG”; the “fractional transfer rate from the liver” value is recorded as “EGC > EC > EGCG = ECG”. Also, the “plasma residence time, rank order” value in data set [3] (in vivo) is recorded as “ECG > EC = EGCG > EGC”. Also, the “basal-to-apical transport” value in data set [4] was “EC > EGC > ECG ≈ EGCG”.
`O=C(O[C@@H]1Cc2c(O)cc(O)cc2O[C@@H]1c1cc(O)c(O)c(O)c1)c1cc(O)c(O)c(O)c1` [EGCG, epigallocatechin gallate]: the “fraction present” value in data set [2] is on record as 0.16%. Further, in data set [3] (setting [8]), the “fractional catabolic rate … per min, rank order” value was “EGC > EGCG = EC > ECG” and the “plasma residence time, rank order” value is listed as “ECG > EC = EGCG > EGC”. Also, the “mean FCR higher in females compared with males” value in data set [3] (setting [9]) was 33%. For the same compound, in data set [3] (n = 19), the “fractional transfer rate from plasma to extravascular tissues, rank order” value is recorded as “EGC > EGCG > EC > ECG”; the “fractional transfer rate from plasma to kidneys, rank order” value is given as “EGC = EC > EGCG = ECG”; the “fractional transfer rate from the liver” value is “EGC > EC > EGCG = ECG”. Moreover, the “basal-to-apical transport” value in data set [4] (Caco-2 cell model) was “EC > EGC > ECG ≈ EGCG”. Also, the “loss by degradation in alkaline environment of the small intestine compared with ECG and EC” value in data set [6] is reported as “greater loss”. Besides, the “free radical scavenging activity” value in data set [7] is given as “superior”. In addition, the “alleviating pathological evidence of nonalcoholic steatohepatitis” value in data set [1] is on record as “more potent”.
Turning to catechin gallate [reference compound], the “anti-inflammatory activity compared with EGCG” value in data set [5] is given as “superior”.

Values taken from PMC10536004, “Gallation and B-Ring Dihydroxylation Increase Green Tea Catechin Residence Time in Plasma by Differentially Affecting Tissue-Specific Trafficking: Compartmental Model of Catechin Kinetics in Healthy Adults” (Nutrients, 2023).
